Where two headings read alike, the source gives them in different places.

In one assay the target is human orexin 1 receptor (Homo sapiens (Human), UniProt O43613). Kind of assay: Human orexin 1 receptor radioligand binding ([3H]-SB674042 competition). The conditions noted are these: read-out: OR-1 Ki. The gist of the method: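 CHO cells stably expressing human OX1R incubated 60 min at room temperature with [3H]-SB674042 and compounds (7 concentrations, 0.1 nM–10 μM; DMSO ≤0.1%) in PBS. Nonspecific binding defined with 10 μM of a reference urea antagonist; bound radioactivity measured by filtration and scintillation counting.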
Sequence of human orexin 1 receptor (O43613 whole entry): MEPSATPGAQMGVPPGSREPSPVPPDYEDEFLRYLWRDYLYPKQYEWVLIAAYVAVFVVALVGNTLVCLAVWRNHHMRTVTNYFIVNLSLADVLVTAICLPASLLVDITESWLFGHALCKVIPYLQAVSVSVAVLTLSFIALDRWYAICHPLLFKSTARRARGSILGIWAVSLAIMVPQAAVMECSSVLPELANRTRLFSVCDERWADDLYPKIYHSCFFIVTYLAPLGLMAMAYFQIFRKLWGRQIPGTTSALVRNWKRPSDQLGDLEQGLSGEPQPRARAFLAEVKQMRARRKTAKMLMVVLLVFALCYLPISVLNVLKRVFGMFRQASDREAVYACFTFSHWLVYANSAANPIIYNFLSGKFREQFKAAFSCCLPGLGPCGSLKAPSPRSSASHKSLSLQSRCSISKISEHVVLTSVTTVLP

A further assay deals with human orexin-2 receptor (Homo sapiens (Human), UniProt O43614). Kind of assay: Human orexin 2 receptor radioligand binding ([3H]-EMPA competition). The conditions noted are these: HEK293 cells stably expressing human orexin-2 receptor; [3H]-EMPA 5 nM final; read-out: OR-2 Ki. The gist of the method:
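Competition binding on HEK293 cells stably expressing human orexin-2 receptor, using 5 nM final [3H]-EMPA in PBS, compounds 0.1 nM to 10 μM (DMSO ≤0.1%). 60 min at room temperature, then filtration and scintillation counting; nonspecific binding defined with 10 μM of a reference antagonist.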

Where [1] appears, read: CHO cells stably expressing human orexin 1 receptor, [3H]-SB674042 4 nM final.

Sequence of human orexin-2 receptor (O43614 whole entry): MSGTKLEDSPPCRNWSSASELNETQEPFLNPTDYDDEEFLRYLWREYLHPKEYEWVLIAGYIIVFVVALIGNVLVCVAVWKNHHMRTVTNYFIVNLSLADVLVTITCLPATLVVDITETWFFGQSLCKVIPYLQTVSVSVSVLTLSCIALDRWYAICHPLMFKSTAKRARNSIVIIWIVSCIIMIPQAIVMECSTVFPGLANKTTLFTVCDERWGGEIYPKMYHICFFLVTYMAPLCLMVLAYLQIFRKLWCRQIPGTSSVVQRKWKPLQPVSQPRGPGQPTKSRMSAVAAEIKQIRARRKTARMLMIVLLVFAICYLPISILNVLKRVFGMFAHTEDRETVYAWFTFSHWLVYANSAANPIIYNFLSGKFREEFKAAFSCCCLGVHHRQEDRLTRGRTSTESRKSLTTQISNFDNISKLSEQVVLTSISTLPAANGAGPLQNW

Consider `O=C(c1c(F)cccc1-n1nccn1)N1CC[C@H]2CN(c3nc4cc(Cl)ccc4o3)[C@H]2C1` [Example 120, 5-Chloro-2-[(1R,6S)-3-{[2-fluoro-6-(2H-1,2,3-triazol-2-yl)phenyl]carbonyl}-3,8-diazabicyclo[4.2.0]oct-8-yl]-1,3-benzoxazole], for which the inhibitory constant (Ki) at human orexin 1 receptor (setting [1]) is 43 nM; on human orexin-2 receptor it was 26 nM.

With `O=C(c1ccccc1-c1cccs1)N1C[C@H]2CN(c3nccc(-c4ccccc4)n3)[C@H]2C1` (single isomer, unassigned) [Example 56, 6-(4-Phenylpyrimidin-2-yl)-3-[(2-thiophen-2-ylphenyl)carbonyl]-3,6-diazabicyclo[3.2.0]heptane], the results for the Ki on human orexin 1 receptor (setting [1]) and on human orexin-2 receptor were 55 nM and 129 nM, respectively.

Take `Cc1ccc(C(F)(F)F)c(C(=O)N2CC[C@H]3CN(c4ccnc(-c5ccccc5)n4)[C@H]3C2)c1` [Example 195, (5-Methyl-2-(trifluoromethyl)phenyl)((1R,6S)-8-(2-phenylpyrimidin-4-yl)-3,8-diazabicyclo[4.2.0]octan-3-yl)methanone]: the Ki is 16 nM on human orexin 1 receptor (setting [1]) and 28 nM on human orexin-2 receptor.

For the compound `COc1ccnc(N2CC3CN(C(=O)c4ccccc4-c4cccs4)CC32)n1` (stereo not shown) [Example 62, 6-(4-Methoxypyrimidin-2-yl)-3-[(2-thiophen-2-ylphenyl)carbonyl]-3,6-diazabicyclo[3.2.0]heptane], the Ki at human orexin 1 receptor (setting [1]) turned out to be 5000 nM; on human orexin-2 receptor, 123 nM.

Turning to `Cc1cc(C)nc(N2C[C@@H]3CCN(C(=O)c4c(F)cccc4-n4nccn4)C[C@@H]32)n1` [Example 29, (1R,6S)-[8-(4,6-Dimethyl-pyrimidin-2-yl)-3,8-diaza-bicyclo[4.2.0]oct-3-yl]-(2-fluoro-6-[1,2,3]triazol-2-yl-phenyl)-methanone], the Ki at human orexin 1 receptor (setting [1]) is 325 nM; at human orexin-2 receptor, 11 nM.

Regarding `Cc1cncc(N2C[C@@H]3CCN(C(=O)c4ccccc4-n4nccn4)C[C@@H]32)n1` [Example 112, (1R,6S)-8-(6-Methylpyrazin-2-yl)-3-{[2-(2H-1,2,3-triazol-2-yl)phenyl]carbonyl}-3,8-diazabicyclo[4.2.0]octane], the Ki on human orexin 1 receptor (setting [1]) came to 1960 nM; at human orexin-2 receptor, 115 nM.

With `COc1cccc(OC)c1C(=O)N1CCC2CN(c3cnc4ccccc4n3)C2C1` (stereo not shown) [Example 12, (2,6-Dimethoxy-phenyl)-(8-quinoxalin-2-yl-3,8-diaza-bicyclo[4.2.0]oct-3-yl)-methanone], the values for the Ki at human orexin 1 receptor (setting [1]) and on human orexin-2 receptor were 659 nM and 209 nM, respectively.

Consider `Cc1cc(C)nc(N2C[C@@H]3CCN(C(=O)c4ccc(C(F)(F)F)nc4-n4ccnn4)C[C@@H]32)n1` [Example 159, (1R,6S)-8-(4,6-Dimethylpyrimidin-2-yl)-3-{[2-(1H-1,2,3-triazol-1-yl)-6-(trifluoromethyl)pyridin-3-yl]carbonyl}-3,8-diazabicyclo[4.2.0]octane], for which the Ki turned out to be 10000 nM at human orexin 1 receptor (setting [1]) and 540 nM on human orexin-2 receptor.

Regarding `Cc1cc(C)nc(N2C[C@@H]3CCN(C(=O)c4cc(F)ccc4-c4ncccn4)C[C@@H]32)n1` [Example 23, (1R,6S)[8-(4,6-Dimethyl-pyrimidin-2-yl)-3,8-diaza-bicyclo[4.2.0]oct-3-yl]-(5-fluoro-2-pyrimidin-2-yl-phenyl)-methanone], the inhibition constant (Ki) on human orexin 1 receptor (setting [1]) stood at 619 nM; at human orexin-2 receptor, 20 nM.

For the compound `Cc1cc(C)nc(N2C[C@@H]3CCN(C(=O)c4ccccc4-c4ncccn4)C[C@@H]32)n1` [Example 28, (1R,6S)-[8-(4,6-Dimethyl-pyrimidin-2-yl)-3,8-diaza-bicyclo[4.2.0]oct-3-yl]-(2-pyrimidin-2-yl-phenyl)-methanone], the Ki at human orexin 1 receptor (setting [1]) was 330 nM; on human orexin-2 receptor, 21 nM.

Turning to `O=C(c1ccccc1-n1nccn1)N1CC2CN(c3nccc(-c4ccccc4)n3)C2C1` (stereo not shown) [Example 67, 6-(4-Phenylpyrimidin-2-yl)-3-{[2-(2H-1,2,3-triazol-2-yl)phenyl]carbonyl}-3,6-diazabicyclo[3.2.0]heptane], the Ki on human orexin 1 receptor (setting [1]) was found to be 225 nM; on human orexin-2 receptor it was 156 nM.

Regarding `COc1ccnc(N2CC3CN(C(=O)c4ccccc4-c4ccccc4)CC32)n1` (stereo not shown) [Example 63, 3-(Biphenyl-2-ylcarbonyl)-6-(4-methoxypyrimidin-2-yl)-3,6-diazabicyclo[3.2.0]heptane], the Ki at human orexin 1 receptor (setting [1]) was 10000 nM; on human orexin-2 receptor, 392 nM.

With `Cc1cncc(N2C[C@@H]3CCN(C(=O)c4ccc(F)cc4-n4nccn4)C[C@@H]32)n1` [Example 114, (1R,6S)-3-{[4-Fluoro-2-(2H-1,2,3-triazol-2-yl)phenyl]carbonyl}-8-(6-methylpyrazin-2-yl)-3,8-diazabicyclo[4.2.0]octane], the values for the inhibition constant (Ki) on human orexin 1 receptor and at human orexin-2 receptor were 10000 nM and 494 nM, respectively.

In the case of `Cc1cc(C)nc(N2C[C@@H]3CCN(C(=O)c4ccc(F)cc4-n4nccn4)C[C@@H]32)n1` [Example 30, (1R,6S)-[8-(4,6-Dimethyl-pyrimidin-2-yl)-3,8-diaza-bicyclo[4.2.0]oct-3-yl]-(4-fluoro-2-[1,2,3]triazol-2-yl-phenyl)-methanone], the Ki at human orexin 1 receptor (setting [1]) is 978 nM; on human orexin-2 receptor it was 13 nM.

In the case of `Cc1ccc(-c2ncccn2)c(C(=O)N2CC[C@H]3CN(c4nc(C)cc(C)n4)[C@H]3C2)c1` [Example 27, (1R,6S)-[8-(4,6-Dimethyl-pyrimidin-2-yl)-3,8-diaza-bicyclo[4.2.0]oct-3-yl]-(5-methyl-2-pyrimidin-2-yl-phenyl)-methanone], the Ki at human orexin 1 receptor (setting [1]) is 143 nM; at human orexin-2 receptor, 28 nM.

Take `Cc1cc(C)nc(N2C[C@@H]3CCN(C(=O)c4cc(F)ccc4-c4ccn(C)n4)C[C@@H]32)n1` [Example 188, (1R,6S)-8-(4,6-Dimethylpyrimidin-2-yl)-3-{[5-fluoro-2-(1-methyl-1H-pyrazol-3-yl)phenyl]carbonyl}-3,8-diazabicyclo[4.2.0]octane]: the inhibition constant Ki was determined as 1300 nM on human orexin 1 receptor (setting [1]) and 35 nM at human orexin-2 receptor.

Regarding `Cc1cc(C)nc(N2C[C@@H]3CCN(C(=O)c4cccc(C)c4-n4ccnn4)C[C@@H]32)n1` [Example 138, (1R,6S)-8-(4,6-Dimethylpyrimidin-2-yl)-3-{[3-methyl-2-(1H-1,2,3-triazol-1-yl)phenyl]carbonyl}-3,8-diazabicyclo[4.2.0]octane], the Ki on human orexin 1 receptor (setting [1]) came out at 1650 nM; on human orexin-2 receptor, 70 nM.

Take `Cc1ccc(N2C[C@@H]3CCN(C(=O)c4cc(F)ccc4-n4nccn4)C[C@@H]32)nc1` [Example 131, (1R,6S)-3-{[5-Fluoro-2-(2H-1,2,3-triazol-2-yl)phenyl]carbonyl}-8-(5-methylpyridin-2-yl)-3,8-diazabicyclo[4.2.0]octane]: the Ki on human orexin 1 receptor (setting [1]) amounted to 1600 nM; at human orexin-2 receptor it was 250 nM.

For the compound `COc1ccc(Br)c(C(=O)N2CC[C@H]3CN(c4nc(C)cc(C)n4)[C@H]3C2)c1F` [Example 154, (1R,6S)-3-[(6-Bromo-2-fluoro-3-methoxyphenyl)carbonyl]-8-(4,6-dimethylpyrimidin-2-yl)-3,8-diazabicyclo[4.2.0]octane], the Ki came to 1200 nM on human orexin 1 receptor (setting [1]) and 140 nM on human orexin-2 receptor.

Consider `Cc1cc(C)nc(N2CC3CN(C(=O)c4ccccc4Br)CC32)n1` (stereo not shown) [Example 58, 3-[(2-Bromophenyl)carbonyl]-6-(4,6-dimethylpyrimidin-2-yl)-3,6-diazabicyclo[3.2.0]heptane], for which the Ki at human orexin 1 receptor (setting [1]) worked out at 9650 nM; at human orexin-2 receptor, 1050 nM.

As to `CN(C)c1nc(N2C[C@@H]3CCN(C(=O)c4ccccc4-n4nccn4)C[C@@H]32)cc(C(F)(F)F)n1` [Example 36, (1R,6S)-[8-(2-Dimethylamino-6-trifluoromethyl-pyrimidin-4-yl)-3,8-diaza-bicyclo[4.2.0]oct-3-yl]-(2-[1,2,3]triazol-2-yl-phenyl)-methanone], the figures for the inhibition constant (Ki) on human orexin 1 receptor (setting [1]) and at human orexin-2 receptor were 11 nM and 5 nM, respectively.

For the compound `COc1ccc(-n2nccn2)c(C(=O)N2CC[C@H]3CN(c4nc(C)cc(C)n4)[C@H]3C2)c1` [Example 134, (1R,6S)-8-(4,6-Dimethylpyrimidin-2-yl)-3-{[5-methoxy-2-(2H-1,2,3-triazol-2-yl)phenyl]carbonyl}-3,8-diazabicyclo[4.2.0]octane], the values for the Ki on human orexin 1 receptor (setting [1]) and on human orexin-2 receptor were 277 nM and 16 nM, respectively.

For the compound `COc1ccc(-n2nccn2)c(C(=O)N2CC[C@H]3CN(c4cc(C)ccn4)[C@H]3C2)c1` [Example 139, (1R,6S)-3-{[5-Methoxy-2-(2H-1,2,3-triazol-2-yl)phenyl]carbonyl}-8-(4-methylpyridin-2-yl)-3,8-diazabicyclo[4.2.0]octane], the Ki at human orexin 1 receptor (setting [1]) amounted to 6500 nM; at human orexin-2 receptor, 208 nM.

With `Cc1cnc(-n2nccn2)c(C(=O)N2CC[C@H]3CN(c4nc(C)cc(C)n4)[C@H]3C2)c1` [Example 160, (1R,6S)-8-(4,6-Dimethylpyrimidin-2-yl)-3-{[5-methyl-2-(2H-1,2,3-triazol-2-yl)pyridin-3-yl]carbonyl}-3,8-diazabicyclo[4.2.0]octane], the Ki stood at 6000 nM at human orexin 1 receptor (setting [1]) and 370 nM on human orexin-2 receptor.

`Cc1cccc(C(=O)N2CC[C@H]3CN(c4cc(C(F)(F)F)ccn4)[C@H]3C2)c1-n1nccn1` [Example 147, (1R,6S)-3-{[3-Methyl-2-(2H-1,2,3-triazol-2-yl)phenyl]carbonyl}-8-[4-(trifluoromethyl)pyridin-2-yl]-3,8-diazabicyclo[4.2.0]octane]: the values for the inhibition constant Ki at human orexin 1 receptor (setting [1]) and at human orexin-2 receptor were 793 nM and 91 nM, respectively.

`Cc1cc(C)nc(N2C[C@@H]3CCN(C(=O)c4cccc(F)c4-n4nccn4)C[C@@H]32)c1` [Example 148, (1R,6S)-8-(4,6-Dimethylpyridin-2-yl)-3-{[3-fluoro-2-(2H-1,2,3-triazol-2-yl)phenyl]carbonyl}-3,8-diazabicyclo[4.2.0]octane]: the figures for the Ki at human orexin 1 receptor (setting [1]) and at human orexin-2 receptor were 845 nM and 36 nM, respectively.

In general, Ki refers to a dissociation constant, usually derived from enzyme kinetics or from competition with a known ligand.

For the origin of these results see patent US8680275B2, “Fused heterocyclic compounds as orexin receptor modulators” (Janssen Pharmaceutica NV, priority 2009, dated 2014).
